{"source": "patent US20070010671A1", "about": "“Novel quinazoline derivatives and methods of treatment related to the use thereof” (priority 2003, published 2007)", "note": "pIC50: −log10 of the molar value.", "data": [{"target": "MCH receptor (Homo sapiens, UniProt Q99705)", "assay": "High throughput functional screening FLIPR/FDSS6000: inhibition of MCH-evoked intracellular Ca2+ changes", "type": "cell-based", "conditions": "class by percent of control at 10^-7 M or IC50", "procedure,_shortened": "(§1)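 Fluo4 fluorescence (Ex 488 nm, Em 530 nm) tracked MCH-evoked [Ca2+]i transients over 290 s by FLIPR or FDSS. Cells carried a constitutively active, non-endogenous receptor version. Compounds were added 3 min before a 50 nM MCH challenge.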", "values": [{"smiles": "CCc1ccccc1NC(=S)NC[C@H]1CC[C@@H](Nc2nc(N(C)C)c3ccccc3n2)CC1", "note": "[compound 640, N-[(cis-4-{[4-(dimethylamino)quinazolin-2-yl]amino}cyclohexyl)methyl]-N′-(2-ethylphenyl)thiourea]", "class": "2 (Class 2: The value of percent of control at 10^−7 M was from 40% to 60% or the value of IC50 was from 50 nM to 200 nM.)"}, {"smiles": "CN(C)c1nc(N[C@H]2CC[C@@H](NC(=S)NCCCCc3ccccc3)CC2)nc2ccccc12", "note": "[compound 374]", "class": "2 (Class 2: The value of percent of control at 10^−7 M was from 40% to 60% or the value of IC50 was from 50 nM to 200 nM.)"}, {"smiles": "CN(C)c1nc(N[C@H]2CC[C@@H](CNC(=O)Nc3ccc(Oc4ccccc4)cc3)CC2)nc2ccccc12", "note": "[compound 453]", "class": "3 (Class 3: The value of percent of control at 10^−7 M was more than 60% or the value of IC50 was more than 200 nM.)"}, {"smiles": "CN(C)c1nc(N[C@H]2CC[C@@H](CNC(=S)Nc3ccc(F)cc3)CC2)nc2ccccc12", "note": "[compound 599]", "class": "3 (Class 3: The value of percent of control at 10^−7 M was more than 60% or the value of IC50 was more than 200 nM.)"}, {"smiles": "CN(C)c1nc(N[C@H]2CC[C@@H](CNC(=O)Nc3ccc(Cl)cc3Cl)CC2)nc2ccccc12", "note": "[compound 423, N-(2,4-dichlorophenyl)-N′-[(cis-4-{[4-(dimethylamino)quinazolin-2-yl]amino}cyclohexyl)methyl]urea]", "class": "2 (Class 2: The value of percent of control at 10^−7 M was from 40% to 60% or the value of IC50 was from 50 nM to 200 nM.)"}, {"smiles": "CN(C)c1nc(N[C@H]2CC[C@@H](NC(=S)NCCCN3CCOCC3)CC2)nc2ccccc12", "note": "[compound 392]", "class": "3 (Class 3: The value of percent of control at 10^−7 M was more than 60% or the value of IC50 was more than 200 nM.)"}, {"smiles": "CN(C)c1nc(N[C@H]2CC[C@@H](CNC(=S)NCc3cccc(F)c3)CC2)nc2ccccc12", "note": "[compound 732]", "class": "3 (Class 3: The value of percent of control at 10^−7 M was more than 60% or the value of IC50 was more than 200 nM.)"}, {"smiles": "CN(C)c1nc(N[C@H]2CC[C@@H](CNC(=O)Nc3ccc(Br)cc3C(F)(F)F)CC2)nc2ccccc12", "note": "[compound 541, N-[4-bromo-2-(trifluoromethyl)phenyl]-N′-[(cis-4-{[4-(dimethylamino)quinazolin-2-yl]amino}cyclohexyl)methyl]urea]", "class": "2 (Class 2: The value of percent of control at 10^−7 M was from 40% to 60% or the value of IC50 was from 50 nM to 200 nM.)"}, {"smiles": "CN(C)c1nc(N[C@H]2CC[C@@H](CNC(=O)Nc3cccc(C(F)(F)F)c3F)CC2)nc2ccccc12", "note": "[compound 495]", "class": "3 (Class 3: The value of percent of control at 10^−7 M was more than 60% or the value of IC50 was more than 200 nM.)"}, {"smiles": "Cc1c(Cl)cccc1NC(=S)N[C@H]1CC[C@@H](Nc2nc(N(C)C)c3ccccc3n2)CC1", "note": "[compound 371]", "class": "1 (Class 1: The value of percent of control at 10^−7 M was less than 40% or the value of IC50 was less than 50 nM.)"}, {"smiles": "CN(C)c1nc(N[C@H]2CC[C@@H](NC(=S)Nc3cccc(C#N)c3)CC2)nc2ccccc12", "note": "[compound 225]", "class": "3 (Class 3: The value of percent of control at 10^−7 M was more than 60% or the value of IC50 was more than 200 nM.)"}, {"smiles": "CN(C)c1nc(N[C@H]2CC[C@@H](NC(=S)Nc3ccc(-c4cnco4)cc3)CC2)nc2ccccc12", "note": "[compound 401]", "class": "3 (Class 3: The value of percent of control at 10^−7 M was more than 60% or the value of IC50 was more than 200 nM.)"}, {"smiles": "CCc1ccc(NC(=O)NC[C@H]2CC[C@@H](Nc3nc(N(C)C)c4ccccc4n3)CC2)cc1", "note": "[compound 432, N-[(cis-4-{[4-(dimethylamino)quinazolin-2-yl]amino}cyclohexyl)methyl]-N′-(4-ethylphenyl)urea]", "class": "2 (Class 2: The value of percent of control at 10^−7 M was from 40% to 60% or the value of IC50 was from 50 nM to 200 nM.)"}, {"smiles": "CN(C)c1nc(N[C@H]2CC[C@@H](NC(=S)Nc3ccc(Br)cc3Cl)CC2)nc2ccccc12", "note": "[compound 233]", "class": "1 (Class 1: The value of percent of control at 10^−7 M was less than 40% or the value of IC50 was less than 50 nM.)"}, {"smiles": "CN(C)c1nc(N[C@H]2CC[C@@H](CNC(=S)NC34CC5CC(CC(C5)C3)C4)CC2)nc2ccccc12", "note": "(relative stereo) [compound 624]", "class": "3 (Class 3: The value of percent of control at 10^−7 M was more than 60% or the value of IC50 was more than 200 nM.)"}, {"smiles": "CN(C)c1nc(N[C@H]2CC[C@@H](CNC(=O)NC3c4ccccc4-c4ccccc43)CC2)nc2ccccc12", "note": "[compound 570]", "class": "3 (Class 3: The value of percent of control at 10^−7 M was more than 60% or the value of IC50 was more than 200 nM.)"}]}, {"target": "MCH receptor (Homo sapiens, UniProt Q99705)", "assay": "High throughput functional screening FLIPR/FDSS6000: inhibition of MCH-evoked intracellular Ca2+ changes", "type": "cell-based", "conditions": "class by percent of control at 10^-7 M or by IC50; read-out: class", "procedure,_shortened": "as §1", "values": [{"smiles": "CN(C)c1nc(N[C@H]2CC[C@@H](NC(=O)Nc3cccc(SC(F)(F)F)c3)CC2)nc2ccccc12", "note": "[compound 119]", "pIC50": "< 6.70"}, {"smiles": "CN(C)c1nc(N[C@H]2CC[C@@H](CNC(=O)OCC(C)(C)C)CC2)nc2ccccc12", "note": "[compound 867]", "pIC50": "< 6.70"}, {"smiles": "CN(C)c1nc(N[C@H]2CC[C@@H](NC(=S)Nc3cccc(C(F)(F)F)c3)CC2)nc2ccccc12", "note": "[compound 194]", "pIC50": "< 6.70"}, {"smiles": "CN(C)c1nc(N[C@H]2CC[C@@H](NC(=S)Nc3c(F)c(F)c(F)c(F)c3F)CC2)nc2ccccc12", "note": "[compound 192, N-(cis-4-{[4-(dimethylamino)quinazolin-2-yl]amino}cyclohexyl)-N′-(pentafluorophenyl)thiourea]", "pIC50": "6.70 to 7.30"}, {"smiles": "CN(C)c1nc(N[C@H]2CC[C@@H](NC(=O)Nc3ccccc3C(C)(C)C)CC2)nc2ccccc12", "note": "[compound 117, N-(2-tert-butylphenyl)-N′-(cis-4-{[4-(dimethylamino)quinazolin-2-yl]amino}cyclohexyl)urea]", "pIC50": "> 7.30"}, {"smiles": "CC1CCC(C(C)C)C(OC(=O)NCC2CCC(Nc3nc(N(C)C)c4ccccc4n3)CC2)C1", "note": "(stereo not shown) [compound 880]", "pIC50": "< 6.70"}, {"smiles": "CN(C)c1nc(N[C@H]2CC[C@@H](NC(=O)Nc3ccc(SC(F)(F)F)cc3)CC2)nc2ccccc12", "note": "[compound 137]", "pIC50": "< 6.70"}, {"smiles": "CC(=O)c1cccc(NC(=S)N[C@H]2CC[C@@H](Nc3nc(N(C)C)c4ccccc4n3)CC2)c1", "note": "[compound 153]", "pIC50": "< 6.70"}, {"smiles": "CN(C)c1nc(N[C@H]2CC[C@@H](CNC(=O)Oc3ccc4ccccc4c3)CC2)nc2ccccc12", "note": "[compound 876]", "pIC50": "< 6.70"}, {"smiles": "Cc1cccc(C)c1NC(=S)N[C@H]1CC[C@@H](Nc2nc(N(C)C)c3ccccc3n2)CC1", "note": "[compound 169, N-(cis-4-{[4-(dimethylamino)quinazolin-2-yl]amino}cyclohexyl)-N′-(2,6-dimethylphenyl)thiourea]", "pIC50": "> 7.30"}, {"smiles": "CSc1ccccc1NC(=O)N[C@H]1CC[C@@H](Nc2nc(N(C)C)c3ccccc3n2)CC1", "note": "[compound 71]", "pIC50": "6.70 to 7.30"}, {"smiles": "CN(C)c1nc(N[C@H]2CC[C@@H](NC(=O)Nc3cccc(Cl)c3Cl)CC2)nc2ccccc12", "note": "[compound 24]", "pIC50": "< 6.70"}, {"smiles": "COc1cc([N+](=O)[O-])ccc1NC(=O)N[C@H]1CC[C@@H](Nc2nc(N(C)C)c3ccccc3n2)CC1", "note": "[compound 104, N-(cis-4-{[4-(dimethylamino)quinazolin-2-yl]amino}cyclohexyl)-N′-(2-methoxy-4-nitrophenyl)urea]", "pIC50": "6.70 to 7.30"}, {"smiles": "CN(C)c1nc(N[C@H]2CC[C@@H](NC(=O)Nc3ccccc3I)CC2)nc2ccccc12", "note": "[compound 101, N-(cis-4-{[4-(dimethylamino)quinazolin-2-yl]amino}cyclohexyl)-N′-(2-iodophenyl)urea]", "pIC50": "> 7.30"}, {"smiles": "CN(C)c1nc(N[C@H]2CC[C@@H](CNC(=S)Nc3ccc(-n4cccn4)cc3)CC2)nc2ccccc12", "note": "[compound 814]", "pIC50": "< 6.70"}, {"smiles": "COc1ccc(NC(=S)N[C@H]2CC[C@@H](Nc3nc(N(C)C)c4ccccc4n3)CC2)c(OC)c1", "note": "[compound 166]", "pIC50": "> 7.30"}]}, {"target": "MCH receptor (Homo sapiens, UniProt Q99705)", "assay": "High throughput functional screening FLIPR/FDSS6000: inhibition of MCH-evoked intracellular Ca2+ changes", "type": "cell-based", "conditions": "class by percent of control at 10^−7 M or by IC50; read-out: class", "procedure,_shortened": "as §1", "values": [{"smiles": "CN(C)c1nc(N[C@H]2CC[C@@H](C(=O)NCc3cccc(F)c3)CC2)nc2ccccc12", "note": "[Example 1157, cis-4-{[4-(dimethylamino)quinazolin-2-yl]amino}-N-(3-fluorobenzyl)cyclohexanecarboxamide]", "pIC50": "> 7.30"}, {"smiles": "COc1cccc(Oc2ncccc2C(=O)N[C@H]2CC[C@@H](Nc3nc(N(C)C)c4ccccc4n3)CC2)c1", "note": "[Example 1035, N-(cis-4-{[4-(dimethylamino)quinazolin-2-yl]amino}cyclohexyl)-2-(3-methoxyphenoxy)nicotinamide]", "pIC50": "> 7.30"}, {"smiles": "CN(C)c1nc(N[C@H]2CC[C@@H](C(=O)NC3c4ccccc4-c4ccccc43)CC2)nc2ccccc12", "note": "[Example 1194, cis-4-{[4-(dimethylamino)quinazolin-2-yl]amino}-N-9H-fluoren-9-ylcyclohexanecarboxamide]", "pIC50": "> 7.30"}, {"smiles": "CN(C)c1nc(N[C@H]2CC[C@@H](C(=O)NCc3cc(F)c(F)cc3F)CC2)nc2ccccc12", "note": "[Example 1170, cis-4-{[4-(dimethylamino)quinazolin-2-yl]amino}-N-(2,4,5-trifluorobenzyl)cyclohexanecarboxamide]", "pIC50": "> 7.30"}, {"smiles": "CN(C)c1nc(N[C@H]2CC[C@@H](C(=O)NCc3cccc(C(F)(F)F)c3F)CC2)nc2ccccc12", "note": "[Example 1177, cis-4-{[4-(dimethylamino)quinazolin-2-yl]amino}-N-[2-fluoro-3-(trifluoromethyl)benzyl]cyclohexanecarboxamide]", "pIC50": "> 7.30"}, {"smiles": "CN(C)c1nc(N[C@H]2CC[C@@H](CNC(=O)c3ccc(OC(F)(F)F)cc3)C2)nc2ccccc12", "note": "[Example 1128, N-[((1R,3S)-3-{[4-(dimethylamino)quinazolin-2-yl]amino}cyclopentyl)methyl]-4-(trifluoromethoxy)benzamide]", "pIC50": "< 6.70"}, {"smiles": "COc1cccc(CNC(=O)[C@H]2CC[C@@H](Nc3nc(N(C)C)c4cc(F)c(F)cc4n3)CC2)c1", "note": "[Example 995, cis-4-{[4-(dimethylamino)-6,7-difluoroquinazolin-2-yl]amino}-N-(3-methoxybenzyl)cyclohexanecarboxamide]", "pIC50": "6.70 to 7.30"}, {"smiles": "COc1cc(Oc2ncccc2C(=O)N[C@H]2CC[C@@H](Nc3nc(N(C)C)c4ccccc4n3)CC2)cc(OC)c1OC", "note": "[Example 1041, N-(cis-4-{[4-(dimethylamino)quinazolin-2-yl]amino}cyclohexyl)-2-(3,4,5-trimethoxyphenoxy)nicotinamide]", "pIC50": "> 7.30"}]}]}
